Legend:
PI3K delta = biological target: T1, PI3K delta (Homo sapiens, UniProt O00329); assay: PI3K delta kinase assay (Kinase-Glo luminescence); assay type: biochemical
T1 construct: for the full-length p110-d subunit are generated and fused by overlapping PCR; p85(iSH2) fusion partner (see partner chain) (N); His tag (C); made in house; host or cells: baculovirus; Tn5 (Trichoplusia ni) or TiniPro insect cells
Method in brief: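 Inhibition is derived from luminescent detection of unconsumed ATP. The reaction runs for one hour at ambient temperature and contains the δ isoform fusion protein, phosphatidylinositol substrate and low (1 μM) ATP. Eight compound concentrations are tested in single, and a 4-parameter logistic model is used to calculate IC50.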

[1] = test system: PKB Ser473 phosphorylation in Rat1-myr-HA-p110 beta cells; assay: Reverse protein array assay, PKB Ser473 phosphorylation in Rat1-myr-p110 beta cells; assay type: cell-based; conditions: 0.5 h, pAkt Ser473, 30 minutes incubation, read-out: p-PKB IC50
Method in brief: (§1)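 After at least 20 h of culture, the p110 isoform-transfected Rat1 lines receive compound in an 8-step dilution series, keeping DMSO at 0.2%, for 30 minutes. Cells are then lysed and lysates arrayed on chips for fluorescence detection of Ser473-phosphorylated PKB.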

[2] = test system: PKB Ser473 phosphorylation in Rat1-myr-HA-p110 delta cells; assay: Reverse protein array assay, PKB Ser473 phosphorylation in Rat1-myr-p110 delta cells; assay type: cell-based; conditions: read-out: p-PKB IC50
Method in brief: as §1

PI3K alpha = biological target: T2, PI3K alpha (Homo sapiens, UniProt P42336); assay: PI3K alpha kinase assay (Kinase-Glo luminescence); assay type: biochemical
T2 construct: p85(iSH2) fusion partner (see partner chain) (N); His tag (C); made in house; host or cells: baculovirus; Tn5 (Trichoplusia ni) or TiniPro insect cells
T2 sequence (P42336 with tags, fused parts or gaps limits assumed): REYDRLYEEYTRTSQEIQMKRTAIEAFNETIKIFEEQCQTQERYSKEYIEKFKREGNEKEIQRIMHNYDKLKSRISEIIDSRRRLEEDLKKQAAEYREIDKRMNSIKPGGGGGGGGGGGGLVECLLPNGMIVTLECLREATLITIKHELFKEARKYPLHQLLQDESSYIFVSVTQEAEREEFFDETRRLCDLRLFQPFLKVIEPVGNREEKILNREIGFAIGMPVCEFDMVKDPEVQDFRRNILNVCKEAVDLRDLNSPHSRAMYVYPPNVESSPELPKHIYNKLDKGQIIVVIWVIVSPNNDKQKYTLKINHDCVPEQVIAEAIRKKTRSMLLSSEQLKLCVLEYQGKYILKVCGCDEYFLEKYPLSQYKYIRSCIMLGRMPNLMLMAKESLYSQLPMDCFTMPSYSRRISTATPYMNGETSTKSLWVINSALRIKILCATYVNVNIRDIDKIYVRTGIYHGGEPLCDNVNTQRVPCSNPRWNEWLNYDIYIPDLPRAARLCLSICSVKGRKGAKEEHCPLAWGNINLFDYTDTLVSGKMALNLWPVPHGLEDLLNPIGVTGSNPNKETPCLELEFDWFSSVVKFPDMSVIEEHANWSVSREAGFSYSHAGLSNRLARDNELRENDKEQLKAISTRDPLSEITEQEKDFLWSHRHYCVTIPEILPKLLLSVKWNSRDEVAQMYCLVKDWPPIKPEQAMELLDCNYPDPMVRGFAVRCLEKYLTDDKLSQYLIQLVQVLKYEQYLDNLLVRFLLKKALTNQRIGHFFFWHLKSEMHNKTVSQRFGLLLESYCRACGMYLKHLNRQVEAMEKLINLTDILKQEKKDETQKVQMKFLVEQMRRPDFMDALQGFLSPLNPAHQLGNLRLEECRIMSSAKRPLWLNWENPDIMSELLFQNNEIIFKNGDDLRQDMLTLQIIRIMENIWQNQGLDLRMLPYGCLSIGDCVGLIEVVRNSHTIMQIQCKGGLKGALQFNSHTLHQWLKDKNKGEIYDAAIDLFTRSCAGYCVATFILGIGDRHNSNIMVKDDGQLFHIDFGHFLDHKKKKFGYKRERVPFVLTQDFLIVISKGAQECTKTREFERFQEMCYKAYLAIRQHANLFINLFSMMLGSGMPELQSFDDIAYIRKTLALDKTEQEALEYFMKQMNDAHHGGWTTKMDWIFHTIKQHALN
Method in brief: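 Luminescent ATP-depletion assay (Kinase-Glo) with 10 nM PI3Kα and 10 μg/mL phosphatidylinositol as lipid substrate at 1 μM ATP. Incubation lasts 60 min at room temperature.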

PI3K beta = biological target: T3, PI3K beta (Homo sapiens, UniProt P42338); assay: PI3K beta kinase assay (Kinase-Glo luminescence); assay type: biochemical
T3 construct: for the full-length p110-b subunit are generated and fused by overlapping PCR; p85(iSH2) fusion partner (see partner chain) (N); His tag (C); made in house; host or cells: baculovirus; Tn5 (Trichoplusia ni) or TiniPro insect cells
T3 sequence (P42338 with tags, fused parts or gaps limits assumed): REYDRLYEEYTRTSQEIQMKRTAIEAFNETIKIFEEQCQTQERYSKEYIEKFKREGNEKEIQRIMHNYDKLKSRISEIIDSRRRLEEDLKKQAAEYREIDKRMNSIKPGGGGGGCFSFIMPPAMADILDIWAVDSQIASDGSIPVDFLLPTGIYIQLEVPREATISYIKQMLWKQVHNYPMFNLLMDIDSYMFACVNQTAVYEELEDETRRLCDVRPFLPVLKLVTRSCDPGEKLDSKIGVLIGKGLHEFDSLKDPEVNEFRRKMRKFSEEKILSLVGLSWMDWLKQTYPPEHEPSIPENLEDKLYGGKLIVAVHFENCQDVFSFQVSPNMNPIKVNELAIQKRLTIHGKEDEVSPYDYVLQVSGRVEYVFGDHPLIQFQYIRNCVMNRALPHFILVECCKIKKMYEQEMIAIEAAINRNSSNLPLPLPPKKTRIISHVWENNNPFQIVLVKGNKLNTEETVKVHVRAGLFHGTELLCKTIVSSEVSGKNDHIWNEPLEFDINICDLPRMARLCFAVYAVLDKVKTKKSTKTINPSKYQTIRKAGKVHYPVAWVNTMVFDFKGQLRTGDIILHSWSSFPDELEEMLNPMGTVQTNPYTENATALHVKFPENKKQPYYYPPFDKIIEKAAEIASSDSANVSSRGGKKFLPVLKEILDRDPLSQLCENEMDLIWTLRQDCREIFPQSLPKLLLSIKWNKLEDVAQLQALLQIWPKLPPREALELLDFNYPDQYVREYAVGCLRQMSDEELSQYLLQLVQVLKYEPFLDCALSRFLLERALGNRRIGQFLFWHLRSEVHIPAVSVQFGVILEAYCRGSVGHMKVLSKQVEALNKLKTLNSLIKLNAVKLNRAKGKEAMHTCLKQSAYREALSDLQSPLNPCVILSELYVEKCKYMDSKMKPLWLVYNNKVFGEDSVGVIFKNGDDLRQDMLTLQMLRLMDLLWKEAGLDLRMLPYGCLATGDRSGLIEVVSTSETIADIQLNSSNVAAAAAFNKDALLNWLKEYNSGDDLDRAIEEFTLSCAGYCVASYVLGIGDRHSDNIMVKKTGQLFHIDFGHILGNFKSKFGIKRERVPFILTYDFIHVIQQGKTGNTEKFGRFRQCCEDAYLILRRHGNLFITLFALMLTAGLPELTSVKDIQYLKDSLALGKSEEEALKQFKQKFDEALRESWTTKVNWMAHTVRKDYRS
Method in brief: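 Kinase-Glo luminescence after a 60 min room-temperature reaction gives remaining ATP. The reaction holds 25 nM p85(iSH2)-p110β full-length His-tagged construct, 1 μM ATP, 10 μg/mL PI, and eight compound concentrations at 0.45% DMSO final. IC50 values come from a four-parameter logistic fit.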

[3] = test system: PKB Ser473 phosphorylation in Rat1-myr-HA-p110 alpha cells; assay: Reverse protein array assay, PKB Ser473 phosphorylation in Rat1-myr-p110 alpha cells; assay type: cell-based; conditions: 0.5 h, pAkt Ser473, 30 minutes compound incubation, read-out: p-PKB IC50
Method in brief: as §1

T1 sequence (O00329 with tags, fused parts or gaps limits assumed): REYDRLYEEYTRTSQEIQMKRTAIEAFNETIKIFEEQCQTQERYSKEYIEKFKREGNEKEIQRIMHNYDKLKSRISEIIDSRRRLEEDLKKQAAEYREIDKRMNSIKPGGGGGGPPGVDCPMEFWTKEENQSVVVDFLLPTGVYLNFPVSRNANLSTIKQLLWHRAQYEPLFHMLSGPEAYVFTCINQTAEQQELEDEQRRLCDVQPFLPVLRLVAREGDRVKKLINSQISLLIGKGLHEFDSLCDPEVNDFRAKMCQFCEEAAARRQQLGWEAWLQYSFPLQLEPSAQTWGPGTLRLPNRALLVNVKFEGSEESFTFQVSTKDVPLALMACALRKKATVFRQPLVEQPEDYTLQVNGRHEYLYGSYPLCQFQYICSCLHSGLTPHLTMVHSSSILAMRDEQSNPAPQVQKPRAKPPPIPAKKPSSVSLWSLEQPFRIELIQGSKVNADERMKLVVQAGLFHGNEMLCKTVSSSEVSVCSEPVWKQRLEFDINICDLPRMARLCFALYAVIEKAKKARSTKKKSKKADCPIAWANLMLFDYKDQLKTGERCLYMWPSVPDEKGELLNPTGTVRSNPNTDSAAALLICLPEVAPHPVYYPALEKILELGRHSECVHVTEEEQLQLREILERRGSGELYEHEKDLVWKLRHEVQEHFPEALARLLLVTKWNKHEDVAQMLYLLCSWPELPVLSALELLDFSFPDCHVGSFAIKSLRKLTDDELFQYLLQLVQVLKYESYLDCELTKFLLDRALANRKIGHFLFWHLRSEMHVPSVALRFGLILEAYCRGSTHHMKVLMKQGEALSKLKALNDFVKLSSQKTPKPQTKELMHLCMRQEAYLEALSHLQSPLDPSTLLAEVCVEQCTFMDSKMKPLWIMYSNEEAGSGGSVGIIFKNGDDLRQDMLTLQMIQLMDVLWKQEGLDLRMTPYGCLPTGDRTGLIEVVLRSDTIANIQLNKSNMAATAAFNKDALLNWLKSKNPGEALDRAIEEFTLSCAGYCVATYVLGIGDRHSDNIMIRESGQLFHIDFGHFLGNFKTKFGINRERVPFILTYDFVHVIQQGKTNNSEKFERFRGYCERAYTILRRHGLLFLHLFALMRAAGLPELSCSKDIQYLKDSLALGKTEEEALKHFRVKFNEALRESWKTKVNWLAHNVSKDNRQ

SMILES | IC50 (PI3K delta) | IC50 [1] | IC50 [2] | IC50 (PI3K alpha) | IC50 (PI3K beta) | IC50 [3]
Cc1nn(C)c(C)c1-n1c(=O)n(C)c2cnc3ccc(-c4ccc(N(C)C)nc4)cc3c21 [Example 4.3, 8-(6-Dimethylamino-pyridin-3-yl)-3-methyl-1-(1,3,5-trimethyl-1H-pyrazol-4-yl)-1,3-dihydro-imidazo[4,5-c]quinolin-2-one] | 98 nM | 615 nM | 787 nM | 99 nM | 382 nM | 68 nM
Cc1nn(C)cc1-n1c(=O)n(C)c2cnc3ccc(-c4cnc(N(C)C)nc4)cc3c21 [Example 6.2, 8-(2-Dimethylamino-pyrimidin-5-yl)-1-(1,3-dimethyl-1H-pyrazol-4-yl)-3-methyl-1,3-dihydro-imidazo[4,5-c]quinolin-2-one] | 32 nM | 47 nM | 76 nM | 22 nM | 185 nM | 32 nM
Cc1ccc(-c2ccc3ncc4c(c3c2)n(-c2cn(C)nc2C)c(=O)n4C)cn1 [Example 7.2, 1-(1,3-Dimethyl-1H-pyrazol-4-yl)-3-methyl-8-(6-methyl-pyridin-3-yl)-1,3-dihydro-imidazo[4,5-c]quinolin-2-one] | 13 nM | 35 nM | 28 nM | 14 nM | 66 nM | 14 nM
Cc1cc(-n2c(=O)n(C)c3cnc4ccc(-c5ccc(C(F)(F)F)nc5)cc4c32)n(C)n1 [Example 8.2, 1-(2,5-Dimethyl-2H-pyrazol-3-yl)-3-methyl-8-(6-trifluoromethyl-pyridin-3-yl)-1,3-dihydro-imidazo[4,5-c]quinolin-2-one] | 120 nM | 326 nM | 412 nM | 95 nM | 387 nM | 192 nM
COc1cncc(-c2ccc3ncc4c(c3c2)n(-c2cn(C)nc2C)c(=O)n4C)c1 [Example 12, 1-(1,3-Dimethyl-1H-pyrazol-4-yl)-8-(5-methoxy-pyridin-3-yl)-3-methyl-1,3-dihydro-imidazo[4,5-c]quinolin-2-one] | 31 nM | 38 nM | 79 nM | 8 nM | 21 nM | 37 nM
CNC(=O)c1ccc(-c2ccc3ncc4c(c3c2)n(-c2cn(C)nc2C)c(=O)n4C)cn1 [Example 15.1, 5-[1-(1,3-Dimethyl-1H-pyrazol-4-yl)-3-methyl-2-oxo-2,3-dihydro-1H-imidazo[4,5-c]quinolin-8-yl]-pyridine-2-carboxylic acid methylamide] | 257 nM | 21 nM | 91 nM | 16 nM | 255 nM | 25 nM
Cc1nn(C(C)C)cc1-n1c(=O)n(C)c2cnc3ccc(-c4ccc(CO)nc4)cc3c21 [Example 16.3, 8-(6-hydroxymethyl-pyridin-3-yl)-1-(1-isopropyl-3-methyl-1H-pyrazol-4-yl)-3-methyl-1,3-dihydro-imidazo[4,5-c]quinolin-2-one] | 27 nM | 39 nM | 125 nM | 59 nM | 404 nM | 67 nM
CCn1cc(-n2c(=O)n(C)c3cnc4ccc(-c5cnc(OC)nc5)cc4c32)c(C)n1 [Example 17.1, 1-(1-Ethyl-3-methyl-1H-pyrazol-4-yl)-8-(2-methoxy-pyrimidin-5-yl)-3-methyl-1,3-dihydro-imidazo[4,5-c]quinolin-2-one] | 20 nM | 57 nM | 103 nM | 30 nM | 120 nM | 73 nM
COc1ncc(-c2ccc3ncc4c(c3c2)n(-c2cn(C)nc2C)c(=O)n4C)cn1 [Example 17.2, 1-(1,3-Dimethyl-1H-pyrazol-4-yl)-8-(2-methoxy-pyrimidin-5-yl)-3-methyl-1,3-dihydro-imidazo[4,5-c]quinolin-2-one] | 38 nM | 40 nM | 58 nM | 56 nM | 206 nM | 19 nM
COc1ncc(-c2ccc3ncc4c(c3c2)n(-c2cn(C)nc2Cl)c(=O)n4C)cn1 [Example 17.3, 1-(3-Chloro-1-methyl-1H-pyrazol-4-yl)-8-(2-methoxy-pyrimidin-5-yl)-3-methyl-1,3-dihydro-imidazo[4,5-c]quinolin-2-one] | 5 nM | 22 nM | 28 nM | 9 nM | 37 nM | 21 nM
Cc1nn(C)cc1-n1c(=O)n(C)c2cnc3ccc(-c4ccc(N)nc4)cc3c21 [Example 23.1, 8-(6-Amino-pyridin-3-yl)-1-(1,3-dimethyl-1H-pyrazol-4-yl)-3-methyl-1,3-dihydro-imidazo[4,5-c]quinolin-2-one] | 15 nM | 7 nM | 26 nM | 8 nM | 41 nM | 13 nM
Cc1nn(C(C)C)cc1-n1c(=O)n(C)c2cnc3ccc(-c4ccc(N)nc4)cc3c21 [Example 23.2, 8-(6-Amino-pyridin-3-yl)-1-(1-isopropyl-3-methyl-1H-pyrazol-4-yl)-3-methyl-1,3-dihydro-imidazo[4,5-c]quinolin-2-one] | 43 nM | 6 nM | 18 nM | 35 nM | 197 nM | 11 nM
CCOc1ccc(-c2ccc3ncc4c(c3c2)n(-c2c(C)nn(C)c2C)c(=O)n4C)cc1OC [Example 29.2, 8-(4-Ethoxy-3-methoxy-phenyl)-3-methyl-1-(1,3,5-trimethyl-1H-pyrazol-4-yl)-1,3-dihydro-midazo[4,5-c]quinolin-2-one] | 56 nM | 143 nM | 234 nM | 38 nM | 167 nM | 50 nM
COCCOc1ccc(-c2ccc3ncc4c(c3c2)n(-c2cn(C)nc2C)c(=O)n4C)cc1OC [Example 30.1, 1-(1,3-Dimethyl-1H-pyrazol-4-yl)-8-[3-methoxy-4-(2-methoxy-ethoxy)-phenyl]-3-methyl-1,3-dihydro-imidazo[4,5-c]quinolin-2-one] | 36 nM | 38 nM | 91 nM | 22 nM | 157 nM | 30 nM
Cc1nn(C)c(C)c1-n1c(=O)n(C)c2cnc3ccc(-c4cccc(O)c4)cc3c21 [Example 32.2, 8-(3-Hydroxy-phenyl)-3-methyl-1-(1,3,5-trimethyl-1H-pyrazol-4-yl)-1,3-dihydro-imidazo[4,5-c]quinolin-2-one] | 38 nM | 725 nM | 366 nM | 30 nM | 165 nM | 221 nM
CNC(=O)c1ccc(-c2ccc3ncc4c(c3c2)n(-c2cn(C)nc2C)c(=O)n4C)cc1 [Example 43.1, 4-[1-(1,3-Dimethyl-1H-pyrazol-4-yl)-3-methyl-2-oxo-2,3-dihydro-1H-imidazo[4,5-c]quinolin-8-yl]-N-methyl-benzamide] | 218 nM | 11 nM | 46 nM | 10 nM | 190 nM | 14 nM
Cc1nn(C)cc1-n1c(=O)n(C)c2cnc3ccc(-c4cncc(N)c4)cc3c21 [Example 45.1, 8-(5-Amino-pyridin-3-yl)-1-(1,3-dimethyl-1H-pyrazol-4-yl)-3-methyl-1,3-dihydro-imidazo[4,5-c]quinolin-2-one] | 19 nM | 80 nM | 154 nM | 14 nM | 47 nM | 60 nM
CCOc1ncc(-c2ccc3ncc4c(c3c2)n(-c2cn(C)nc2C)c(=O)n4C)cn1 [Example 52, 1-(1,3-Dimethyl-1H-pyrazol-4-yl)-8-(2-ethoxy-pyrimidin-5-yl)-3-methyl-1,3-dihydro-imidazo[4,5-c]quinolin-2-one] | 37 nM | 9 nM | 96 nM | 56 nM | 343 nM | 6 nM
COCc1cncc(-c2ccc3ncc4c(c3c2)n(-c2cn(C)nc2Cl)c(=O)n4C)c1 [Example 54.2, 1-(3-Chloro-1-methyl-1H-pyrazol-4-yl)-8-(5-methoxymethyl-pyridin-3-yl)-3-methyl-1,3-dihydro-imidazo[4,5-c]quinolin-2-one] | 20 nM | 43 nM | 44 nM | 30 nM | 51 nM | 42 nM

Source: US20140005163A1 (NOVARTIS AG, priority 2010, published 2014)
